Laboratory results as given in publication PMC9428674 (RSC Chemical Biology, 2022).

Experiments:
NTAQ1 = experiment: Western blot verification of NTAQ1 degradation; conditions: 100 nM MLN4924 pre-treatment for 2 hours
[1] = cited from earlier work

| SMILES | effect of pre-treatment on NTAQ1 downregulation by EM12-FS (NTAQ1) | human plasma half-life [1] [h] |
| --- | --- | --- |
| NS(=O)(=O)OC[C@@H]1C[C@@H](n2ccc3c(N[C@H]4CCc5ccccc54)ncnc32)C[C@@H]1O [MLN4924] | rescued downregulation of NTAQ1 by EM12-FS |  |
| Nc1cccc2c1CN(C1CCC(=O)NC1=O)C2=O (stereo not shown) [lenalidomide] |  | 4.73 |
| Nc1cccc2c1C(=O)N(C1CCC(=O)NC1=O)C2=O (stereo not shown) [pomalidomide] |  | 2.65 |
| O=C1CCC(N2C(=O)c3ccccc3C2=O)C(=O)N1 (stereo not shown) [thalidomide] |  | 0.367 |
